Experimental data taken from article PMC10706087, “The Subtype Selectivity in Search of Potent Hypotensive Agents among 5,5-Dimethylhydantoin Derived α1-Adrenoceptors Antagonists” (International Journal of Molecular Sciences, 2023).
Several values for one entry are separate records, joined by “and”; a condition that tells them apart may be missing. Equal entries are not always repeated.

Experiments:
[1] = target: T1, human adrenergic receptor α1B (Homo sapiens, UniProt P35368); test: Intrinsic activity, aequorin luminescence functional assay at α1B-AR; type: cell-based; details: for α1B-AR Profile: agonist/antagonist profile; for IC50: cells expressing aequorin and human α1B, against phenylephrine, means of three independent experiments in duplicates; for Selectivity Ratio α1A/α1B: selectivity for α1B-AR (IC50(α1A-AR)/IC50(α1B-AR))
T1 sequence (P35368 1-520): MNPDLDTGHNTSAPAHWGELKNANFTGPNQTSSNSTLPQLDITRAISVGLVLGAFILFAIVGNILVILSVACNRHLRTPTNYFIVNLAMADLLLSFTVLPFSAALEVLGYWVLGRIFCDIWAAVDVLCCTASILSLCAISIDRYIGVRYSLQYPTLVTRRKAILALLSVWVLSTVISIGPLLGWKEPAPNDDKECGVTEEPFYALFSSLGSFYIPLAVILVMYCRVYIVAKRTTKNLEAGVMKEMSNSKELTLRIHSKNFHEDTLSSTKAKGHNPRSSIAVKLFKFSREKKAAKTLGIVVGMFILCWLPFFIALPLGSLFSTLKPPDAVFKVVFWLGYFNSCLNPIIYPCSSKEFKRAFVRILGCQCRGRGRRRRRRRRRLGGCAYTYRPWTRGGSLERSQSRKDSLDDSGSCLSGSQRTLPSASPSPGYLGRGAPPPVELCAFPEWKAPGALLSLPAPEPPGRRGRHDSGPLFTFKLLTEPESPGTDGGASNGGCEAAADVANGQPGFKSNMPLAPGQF
Experimental: (§1) The subtype selectivity for α1A and α1B was calculated as IC50(α1B-AR)/IC50(α1A-AR) and IC50(α1A-AR)/IC50(α1B-AR) ratio, respectively.
(§2) Intrinsic activity at the α1-AR subtypes studies were performed using the cells expressing mitochondrially-targeted aequorin and one of the human adrenergic receptor α1A or α1B (PerkinElmer, Boston, MA, USA), according to the manufacturer’s instructions. For measurement, frozen cells were thawed and re-suspended in 10 mL of assay buffer containing 5 μM “Coelenterazine h”. This cell suspension was put in a 10 mL Falcon tube, fixed onto a rotating heel, and incubated overnight at rt in the dark (8 rpm; 45° angle). Cells were diluted with Assay Buffer to 5000 cells/20 μL. […] The light emitted was recorded for 20 s. Cells with antagonists were incubated for 15 min at room temperature. […] Luminescence was measured using the multidetection microplate reader (POLARstar Omega, BMG LABTECH, Ortenberg, Germany).
(§3) All statistics were performed using GraphPad Prism, Version 6.0 (GraphPad Software, San Diego, CA, USA). In the radioligand binding study, data were analyzed by a one-site curve-fitting equation, and inhibition constants (Ki) values were calculated via the Cheng-Prusoff equation [63]. In functional studies, data were analyzed using a sigmoidal dose-response (variable slope) equation. Arterial blood pressure data were analyzed using a two-way ANOVA with Sidak’s post-hoc test for multiple comparisons. A p < 0.05 was considered statistically significant.

[2] = target: α1-adrenoceptors (α1-ARs), rat cerebral cortex; test: Radioligand binding assay with [3H]-prazosin, affinity for α1-ARs; details: three independent experiments in duplicates, read-out: α1-adrenoceptor affinity Ki
Experimental: In the first step, all synthesized compounds (1–15) were tested in vitro for their affinity for α1-ARs on rat cerebral cortex by the radioligand binding assay using [^3H]-prazosin as a specific radioligand.
The affinity for α1-ARs was determined by radioligand binding assay on rat cerebral cortex using [3H]-prazosin as a specific radioligand. The brains were homogenized in 20 volumes of an ice-cold 50 mM Tris-HCl buffer (pH 7.6) and were centrifuged (MPW Med. Instruments, Warsaw, Poland) at 20,000× g for 20 min (0–4 °C). The cell pellet was resuspended in the Tris-HCl buffer and centrifuged again. Radioligand-binding assay was performed in plates (MultiScreen/Millipore, Burlington, MA, USA). The final incubation mixture (final volume 300 μL) consisted of 240 μL of the membrane suspension, 30 μL of [3H]-Prazosin (0.2 nM) solution, and 30 μL of the buffer containing seven to eight concentrations (10^−11 to 10^−4 M) of the tested compounds. For measuring the unspecific binding, phentolamine, 10 μM (in the case of [3H]-Prazosin) was applied. The incubation was terminated by rapid filtration over glass fiber filters (Whatman GF/C, Sigma-Aldrich) using a vacuum manifold (Millipore). The filters were then washed twice with the assay buffer and placed in scintillation vials with a liquid-scintillation cocktail. Radioactivity was measured in a WALLAC 1409 DSA liquid-scintillation counter (BioSurplus, San Diego, CA, USA).
as §3

[3] = tested on: arterial blood pressure of normotensive Wistar rats; test: Influence on blood pressure in normotensive anesthetized rats after i.v. administration; type: in vivo, rat; details: for Diastolic blood pressure / Systolic blood pressure: mean, n = 6
Experimental: In the next step, the hypotensive activity of novel compounds 1–3, 5–9, and 11–14 was determined after i.v. administration to normotensive anesthetized rats. All results are shown in Supplementary Table S1.
The normotensive rats were anesthetized with thiopental (75 mg/kg) by intraperitoneal injection (i.p.). The left carotid artery was cannulated with a polyethylene tub filled with heparin in saline to facilitate pressure measurements using a PowerLab Apparatus (ADInstruments, Sydney, Australia). Blood pressure was measured immediately before administration of the tested compounds or vehicle—time 0 min (initial blood pressure) and 60 min thereafter. Initial blood pressure before administration of the tested chemicals in all experimental groups was similar. The tested compounds were dissolved in a specific vehicle: ethyl alcohol 5% − kolliphor 5% − water 90%. All tested chemicals were administrated intravenously (i.v.) at a constant volume of 1 mL/kg after 20 min of stabilization period. The compounds were tested at a starting dose of 2 mg/kg. If the hypotensive activity was found, the dose was reduced by half. The dosing was continued until the hypotensive effects disappeared. Urapidil was used as a reference compound.
as §3

[4] = target: T2, human adrenergic receptor α1A (Homo sapiens, UniProt P35348); test: Intrinsic activity, aequorin luminescence functional assay at α1A-AR; type: cell-based; details: for α1A-AR Profile: agonist/antagonist profile; for IC50: cells expressing aequorin and human α1A, against phenylephrine, means of three independent experiments in duplicates; for Selectivity Ratio α1B/α1A: selectivity for α1A-AR (IC50(α1B-AR)/IC50(α1A-AR))
T2 sequence (P35348 1-466): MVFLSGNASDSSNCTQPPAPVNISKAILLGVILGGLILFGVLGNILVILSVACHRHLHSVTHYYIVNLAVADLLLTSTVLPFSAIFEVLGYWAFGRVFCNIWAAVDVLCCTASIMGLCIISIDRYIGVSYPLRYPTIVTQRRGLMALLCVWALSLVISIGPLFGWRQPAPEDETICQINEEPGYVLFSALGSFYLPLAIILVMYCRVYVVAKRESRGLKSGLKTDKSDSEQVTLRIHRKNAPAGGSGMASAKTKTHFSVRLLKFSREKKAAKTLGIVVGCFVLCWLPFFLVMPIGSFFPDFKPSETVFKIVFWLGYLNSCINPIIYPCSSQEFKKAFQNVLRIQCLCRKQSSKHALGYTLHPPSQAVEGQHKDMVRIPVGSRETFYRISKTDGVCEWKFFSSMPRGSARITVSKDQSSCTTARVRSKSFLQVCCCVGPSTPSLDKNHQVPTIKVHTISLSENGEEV
Experimental: as §1, §2, §3

[5] = 0.0625 mg/kg i.v., 0 min (initial, before administration)
[6] = i.v., normotensive anesthetized rats
[7] = 2.0 mg/kg i.v., 0 min (initial, before administration)

Row | α1B-AR Profile [1] | IC50 [1] | Selectivity Ratio α1A/α1B [1] | Ki [2] [nM] | melting point [°C] | α1A-AR Profile [4] | IC50 [4] | Selectivity Ratio α1B/α1A [4] | SMILES | effect on systolic and diastolic blood pressure (in words) [3, 6] | Diastolic blood pressure [3, 7] | Systolic blood pressure [3, 7] | Diastolic blood pressure ([3]; 2.0 mg/kg i.v., 5 min) | Systolic blood pressure ([3]; 2.0 mg/kg i.v., 5 min) | Diastolic blood pressure ([3]; 2.0 mg/kg i.v., 10 min) | Systolic blood pressure ([3]; 2.0 mg/kg i.v., 10 min) | Diastolic blood pressure ([3]; 2.0 mg/kg i.v., 20 min) | Systolic blood pressure ([3]; 2.0 mg/kg i.v., 20 min) | Diastolic blood pressure ([3]; 2.0 mg/kg i.v., 30 min) | Systolic blood pressure ([3]; 2.0 mg/kg i.v., 30 min) | Diastolic blood pressure ([3]; 2.0 mg/kg i.v., 40 min) | also measured
1 | Antagonist | < 100 nM and < 11 nM and 0.002 nM | 10.00 | 12.7 | 205 to 207 | Antagonist | < 100 nM and 0.02 nM | 0.10 | COc1ccccc1N1CCN(CCCCCCN2C(=O)N(Cc3ccc(Cl)cc3Cl)C(=O)C2(C)C)CC1.Cl [Compound 5, 3-(2,4-dichlorobenzyl)-1-(6-(4-(2-methoxyphenyl)piperazin-1-yl)hexyl)-5,5-dimethylimidazolidine-2,4-dione hydrochloride] | statistically significant reduction | – | – | – | – | – | – | – | – | – | – | – | Diastolic blood pressure [3, 5]: 92.0; Systolic blood pressure [3, 5]: 128.8; Diastolic blood pressure ([3]; 0.0625 mg/kg i.v., 5 min): 87.7; Systolic blood pressure ([3]; 0.0625 mg/kg i.v., 5 min): 121.0; Diastolic blood pressure ([3]; 0.0625 mg/kg i.v., 10 min): 84.2; Systolic blood pressure ([3]; 0.0625 mg/kg i.v., 10 min): 116.8; Diastolic blood pressure ([3]; 0.0625 mg/kg i.v., 20 min): 81.7; Systolic blood pressure ([3]; 0.0625 mg/kg i.v., 20 min): 114.2; Diastolic blood pressure ([3]; 0.0625 mg/kg i.v., 30 min): 82.7; Systolic blood pressure ([3]; 0.0625 mg/kg i.v., 30 min): 113.3; Diastolic blood pressure ([3]; 0.0625 mg/kg i.v., 40 min): 81.7; Systolic blood pressure ([3]; 0.0625 mg/kg i.v., 40 min): 114.7; Diastolic blood pressure ([3]; 0.0625 mg/kg i.v., 50 min): 81.8; Systolic blood pressure ([3]; 0.0625 mg/kg i.v., 50 min): 116.8; Diastolic blood pressure ([3]; 0.0625 mg/kg i.v., 60 min): 83.3; Systolic blood pressure ([3]; 0.0625 mg/kg i.v., 60 min): 116.3; hypotensive dose lower than that of urapidil ([3]; 0.0625 vs. 1.0 mg/kg): 16 fold; lowest hypotensive (effective) dose [3, 6]: 0.0625 mg/kg
2 | Antagonist | 905 nM | 6.53 | 53 | 196 to 198 | Antagonist | 5910 nM | 0.15 | CC1(C)C(=O)N(Cc2ccc(Cl)cc2Cl)C(=O)N1CC(O)CN1CCN(c2ccccc2)CC1.Cl (centres unmarked) [Compound 6, 3-(2,4-dichlorobenzyl)-1-(2-hydroxy-3-(4-phenylpiperazin-1-yl)propyl)-5,5-dimethylimidazolidine-2,4-dione hydrochloride] | – | 98.2 | 134.2 | 87.2 | 124.2 | 90.3 | 125.2 | 89.7 | 126.3 | 89.0 | 125.0 | 89.0 | Systolic blood pressure ([3]; 2.0 mg/kg i.v., 40 min): 126.7; Diastolic blood pressure ([3]; 2.0 mg/kg i.v., 50 min): 89.2; Systolic blood pressure ([3]; 2.0 mg/kg i.v., 50 min): 125.5; Diastolic blood pressure ([3]; 2.0 mg/kg i.v., 60 min): 88.7; Systolic blood pressure ([3]; 2.0 mg/kg i.v., 60 min): 125.8
3 | Antagonist | 359 nM | 0.45 | 26 | 147 to 149 | Antagonist | 162 nM | 2.21 | CC1(C)C(=O)N(Cc2ccc(Cl)cc2Cl)C(=O)N1CC(O)CN1CCN(c2ccccc2C#N)CC1.Cl (centres unmarked) [Compound 11, 3-(2,4-dichlorobenzyl)-1-(3-(4-(2-cyanophenyl)piperazin-1-yl)-2-hydroxypropyl)-5,5-dimethylimidazolidine-2,4-dione hydrochloride] | no significant changes | 91.7 | 128.5 | 84.0 | 117.0 | 80.7 | 112.8 | 79.7 | 113.0 | 79.8 | 112.5 | 82.0 | Systolic blood pressure ([3]; 2.0 mg/kg i.v., 40 min): 113.8; Diastolic blood pressure ([3]; 2.0 mg/kg i.v., 50 min): 82.3; Systolic blood pressure ([3]; 2.0 mg/kg i.v., 50 min): 116.3; Diastolic blood pressure ([3]; 2.0 mg/kg i.v., 60 min): 81.7; Systolic blood pressure ([3]; 2.0 mg/kg i.v., 60 min): 118.2; selectivity for α1A-AR over α1B-AR ([4]; from IC50 ratio): ~ 2 fold
